For the experiment, the system named is A/CK/ANYANG/MS96 (H9N2). Further details: species or system low-pathogenic avian influenza H9N2 serotype virus.

Turning to `CCOC(=O)C1=C[C@@H](OC(CC)CC)[C@H](NC(C)=O)[C@@H](N)C1` [Tamiflu, Oseltamivir phosphate], the “HA positive (eggs)” value was 0/3; the HA titer was 0; the “antiviral activity (virus detection in sensitized and inoculated eggs)” value is reported as “showed antiviral activity”.

The values are drawn from patent US20200190464A1, “NOVEL LAC[…] ANTIVIRAL EFFECT AND COMPOSITION THEREOF” (priority 2017, published 2020).
